For 19 compounds, IC50 results are on record in patent US20230059136A1, “THE COMPOUNDS AND COMPOSITIONS FOR TREATING CONDITIONS ASSOCIATED WITH NLRP ACTIVITY” (Novartis AG, priority 2018, published 2023).

The test system of the test is IL-1β production in PMA-differentiated THP-1 cells. The test can be described thus: IL-1β production in PMA-differentiated THP-1 cells stimulated with gramicidin (hTHP-1 assay containing 2% fetal bovine serum). In kind it is cell-based, human. As to conditions: Table B1; 2% fetal bovine serum; class symbols; read-out: hTHP-1 IC50 (Average IC50 of compounds in hTHP-1 assay). The method, then: Procedure 1: IL-1β Production in PMA-Differentiated THP-1 Cells Stimulated with Gramicidin.
THP-1 cells were purchased from the American Type Culture Collection and sub-cultured according to instructions from the supplier. Cells were cultured in complete RPMI 1640 (containing 10% heat inactivated FBS, penicillin (100 units/ml) and streptomycin (100 μg/ml)), and maintained in log phase prior to experimental setup. Prior to the experiment, compounds were dissolved in dimethyl sulfoxide (DMSO) to generate a 30 mM stock. The compound stock was first pre-diluted in DMSO to 3, 0.34, 0.042 and 0.0083 mM intermediate concentrations and subsequently spotted using Echo550 liquid handler into an empty 384-well assay plate to achieve desired final concentration (e.g. 100, 33, 11, 3.7, 1.2, 0.41, 0.14, 0.046, 0.015, 0.0051, 0.0017 μM). DMSO was backfilled in the plate to achieve a final DMSO assay concentration of 0.37%. The plate was then sealed and stored at room temperature until required.
THP-1 cells were treated with PMA (Phorbol 12-myristate 13-acetate) (20 ng/ml) for 16-18 hours. On the day of the experiment the media was removed and adherent cells were detached with trypsin for 5 minutes. Cells were then harvested, washed with complete RPMI 1640, spun down, and resuspended in RPMI 1640 (containing 2% heat inactivated FBS, penicillin (100 units/ml) and streptomycin (100 μg/ml). The cells were plated in the 384-well assay plate containing the spotted compounds at a density of 50,000 cells/well (final assay volume 50 μl). Cells were incubated with compounds for 1 hour and then stimulated with gramicidin (5 μM) (Enzo) for 2 hours. Plates were then centrifuged at 340 g for 5 min. Cell free supernatant (40 μL) was collected using a 96-channel PlateMaster (Gilson) and the production of IL-1β was evaluated by HTRF (cisbio). The plates were incubated for 18 h at 4° C. and read using the preset HTRF program (donor emission at 620 nm, acceptor emission at 668 nm) of the SpectraMax i3x spectrophotometer (Molecular Devices, software SoftMax 6). A vehicle only control and a dose titration of CRID3 (100-0.0017 μM) were run concurrently with each experiment.
Procedure 2: IL-1β Production in PMA-Differentiated THP-1 Cells Stimulated with Gramicidin.
THP-1 cells were purchased from the American Type Culture Collection and sub-cultured according to instructions from the supplier. Prior to experiments, cells were cultured in complete RPMI 1640 (containing 10% heat inactivated FBS, penicillin (100 units/ml) and streptomycin (100 μg/ml)), and maintained in log phase prior to experimental setup. Prior to the experiment THP-1 were treated with PMA (Phorbol 12-myristate 13-acetate) (20 ng/ml) for 16-18 hours. Compounds were dissolved in dimethyl sulfoxide (DMSO) to generate a 30 mM stock. On the day of the experiment the media was removed and adherent cells were detached with trypsin for 5 minutes. Cells were then harvested, washed with complete RPMI 1640, spun down, resuspended in RPMI 1640 (containing 2% heat inactivated FBS, penicillin (100 units/ml) and streptomycin (100 μg/ml). The cells were plated in a 384-well plate at a density of 50,000 cells/well (final assay volume 50 μl). Compounds were first dissolved in assay medium to obtain a 5× top concentration of 500 μM. 10 step dilutions (1:3) were then undertaken in assay medium containing 1.67% DMSO. 5× compound solutions were added to the culture medium to achieve desired final concentration (e.g. 100, 33, 11, 3.7, 1.2, 0.41, 0.14, 0.046, 0.015, 0.0051, 0.0017 μM). Final DMSO concentration was at 0.37%. Cells were incubated with compounds for 1 hour and then stimulated with gramicidin (5 μM) (Enzo) for 2 hours. Plates were then centrifuged at 340 g for 5 min. Cell free supernatant (40 μL) was collected using a 96-channel PlateMaster (Gilson) and the production of IL-1β was evaluated by HTRF (cisbio). A vehicle only control and a dose titration of CRID3 (100-0.0017 μM) were run concurrently with each experiment. […]

On to `CC(C)c1cc(F)cc(C(C)C)c1CC(=O)N=S(N)(=O)c1sc(C(C)(C)O)cc1F` (single isomer, unassigned) [Example 50, (S)- or (R)-2-(4-fluoro-2,6-diisopropylphenyl)-N-(3-fluoro-5-(2-hydroxypropan-2-yl)thiophen-2-ylsulfonimidoyl)acetamide], for which the IC50 was in the range of 8 to 40 nM.

Take `CC(C)c1cc(F)cc(C(C)C)c1CC(=O)N=S(N)(=O)c1sc(C(C)(C)O)cc1F` (single isomer, unassigned) [Example 51, (R)- or (S)-2-(4-fluoro-2,6-diisopropylphenyl)-N-(3-fluoro-5-(2-hydroxypropan-2-yl)thiophen-2-ylsulfonimidoyl)acetamide]: the IC50 fell in the range of 200 to 1000 nM.

For the compound `CC(C)c1cc(F)cc(C2CC2)c1CC(=O)N=S(N)(=O)c1sc(C(C)(C)O)cc1F` (single isomer, unassigned) [Example 52, (S)- or (R)-2-(2-cyclopropyl-4-fluoro-6-isopropylphenyl)-N-(3-fluoro-5-(2-hydroxypropan-2-yl)thiophen-2-ylsulfonimidoyl)acetamide], the IC50 is 8 to 40 nM.

Take `CC(C)c1cc(F)cc(C2CC2)c1CC(=O)N=S(N)(=O)c1sc(C(C)(C)O)cc1F` (single isomer, unassigned) [Example 53, (R)- or (S)-2-(2-cyclopropyl-4-fluoro-6-isopropylphenyl)-N-(3-fluoro-5-(2-hydroxypropan-2-yl)thiophen-2-ylsulfonimidoyl)acetamide]: the IC50 lay within 1000 to 5000 nM.

With `CC(C)c1c(F)c(C#N)cc(C2CC2)c1CC(=O)N=S(N)(=O)c1sc(C(C)(C)O)cc1F` (single isomer, unassigned) [Example 54, (S)- or (R)-2-(4-cyano-6-cyclopropyl-3-fluoro-2-isopropylphenyl)-N-(3-fluoro-5-(2-hydroxypropan-2-yl)thiophen-2-ylsulfonimidoyl)acetamide], the IC50 is 8 to 40 nM.

`CC(C)c1c(F)c(C#N)cc(C2CC2)c1CC(=O)N=S(N)(=O)c1sc(C(C)(C)O)cc1F` (single isomer, unassigned) [Example 55, (R)- or (S)-2-(4-cyano-6-cyclopropyl-3-fluoro-2-isopropylphenyl)-N-(3-fluoro-5-(2-hydroxypropan-2-yl)thiophen-2-ylsulfonimidoyl)acetamide]: the IC50 was in the range of 1000 to 5000 nM.

As to `CC(C)c1cc(Cl)c(F)c(C2CC2)c1CC(=O)N=S(N)(=O)c1sc(C(C)(C)O)cc1F` (single isomer, unassigned) [Example 56, (S)- or (R)-2-(4-chloro-2-cyclopropyl-3-fluoro-6-isopropylphenyl)-N-(3-fluoro-5-(2-hydroxypropan-2-yl)thiophen-2-ylsulfonimidoyl)acetamide], the IC50 was in the range of 200 to 1000 nM.

In the case of `CC(C)c1cc(Cl)c(F)c(C2CC2)c1CC(=O)N=S(N)(=O)c1sc(C(C)(C)O)cc1F` (single isomer, unassigned) [Example 57, (R)- or (S)-2-(4-chloro-2-cyclopropyl-3-fluoro-6-isopropylphenyl)-N-(3-fluoro-5-(2-hydroxypropan-2-yl)thiophen-2-ylsulfonimidoyl)acetamide], the IC50 was in the range of 1000 to 5000 nM.

Regarding `Cc1nc(C(C)(C)O)sc1S(N)(=O)=NC(=O)Cc1c(C(C)C)cc(C#N)cc1C(C)C` (single isomer, unassigned) [Example 60, (S)- or (R)-2-(4-cyano-2,6-diisopropylphenyl)-N-(2-(2-hydroxypropan-2-yl)-4-methylthiazole-5-sulfonimidoyl)acetamide], the IC50 is 40 to 200 nM.

On to `Cc1nc(C(C)(C)O)sc1S(N)(=O)=NC(=O)Cc1c(C(C)C)cc(C#N)cc1C(C)C` (single isomer, unassigned) [Example 61, (R)- or (S)-2-(4-cyano-2,6-diisopropylphenyl)-N-(2-(2-hydroxypropan-2-yl)-4-methylthiazole-5-sulfonimidoyl)acetamide], for which the IC50 lay in the range of 5000 to 30000 nM.

Consider `CC(C)c1cc(C#N)cc(C(C)C)c1CC(=O)N=S(N)(=O)c1sc(C(C)(C)O)nc1CO` (single isomer, unassigned) [Example 64, N-(amino(4-(hydroxymethyl)-2-(2-hydroxypropan-2-yl)thiazol-5-yl)(oxo)-λ^6-sulfaneylidene)-2-(4-cyano-2,6-diisopropylphenyl)acetamide], for which the IC50 is 200 to 1000 nM.

In the case of `CC(C)c1cc(C#N)cc(C(C)C)c1CC(=O)N=S(N)(=O)c1sc(C(C)(C)O)nc1CO` (single isomer, unassigned) [Example 65], the IC50 lay in the range of 5000 to 30000 nM.

With `COCc1cc(C(C)C)c(CC(=O)N=S(N)(=O)c2sc(C(C)(C)O)nc2CO)c(C(C)C)c1` (single isomer, unassigned) [Example 68, (S)- or (R)-2-(2,6-diisopropyl-4-(methoxymethyl)phenyl)-N-(4-(hydroxymethyl)-2-(2-hydroxypropan-2-yl)thiazol-5-ylsulfonimidoyl)acetamide], the IC50 was 200 to 1000 nM.

In the case of `COCc1cc(C(C)C)c(CC(=O)N=S(N)(=O)c2sc(C(C)(C)O)nc2CO)c(C(C)C)c1` (single isomer, unassigned) [Example 69, (R)- or (S)-2-(2,6-diisopropyl-4-(methoxymethyl)phenyl)-N-(4-(hydroxymethyl)-2-(2-hydroxypropan-2-yl)thiazol-5-ylsulfonimidoyl)acetamide], the IC50 was in the range of 5000 to 30000 nM.

With `CC(C)c1cc(C#N)cc(C2CC2)c1CC(=O)N=S(N)(=O)c1sc(C(C)(C)O)nc1CO` (single isomer, unassigned) [Example 70, (S)- or (R)-(4-cyano-2-cyclopropyl-6-isopropylphenyl)-N-(4-(hydroxymethyl)-2-(2-hydroxypropan-2-yl)thiazol-5-ylsulfonimidoyl)acetamide], the IC50 was 200 to 1000 nM.

Regarding `CC(C)c1cc(C#N)cc(C2CC2)c1CC(=O)N=S(N)(=O)c1sc(C(C)(C)O)nc1CO` (single isomer, unassigned) [Example 71, (R)- or (S)-2-(4-cyano-2-cyclopropyl-6-isopropylphenyl)-N-(4-(hydroxymethyi)-2-(2-hydroxypropan-2-yl)thiazol-5-ylsulfonimidoyl)acetamide], the IC50 fell in the range of 5000 to 30000 nM.

In the case of `CC(C)c1cc(OC(F)F)cc(C(C)C)c1CC(=O)N=S(N)(=O)c1sc(C(C)(C)O)cc1F` (single isomer, unassigned) [Example 76, (S)- or (R)-2-(4-(difluoromethoxy)-2,6-diisopropylphenyl)-N-(3-fluoro-5-(2-hydroxypropan-2-yl)thiophen-2-ylsulfonimidoyl)acetamide], the IC50 fell in the range of 40 to 200 nM.

Consider `CC(C)c1cc(OC(F)F)cc(C(C)C)c1CC(=O)N=S(N)(=O)c1sc(C(C)(C)O)cc1F` (single isomer, unassigned) [Example 77, (R)- or (S)-(4-(difluoromethoxy)-2,6-diisopropylphenyl)-N-(3-fluoro-5-(2-hydroxypropan-2-yl)thiophen-2-ylsulfonimidoyl)acetamide], for which the IC50 was 1000 to 5000 nM.

As to `CCc1cc(OC(F)F)cc(C(C)C)c1CC(=O)N=S(N)(=O)c1sc(C(C)(C)O)cc1F` (single isomer, unassigned) [Example 78, (S)- or (R)-2-(4-(difluoromethoxy)-2-ethyl-6-isopropylphenyl)-N-(3-fluoro-5-(2-hydroxypropan-2-yl)thiophen-2-ylsulfonimidoyl)acetamide], the IC50 lay within 200 to 1000 nM.
